From the NIST ThermoML archive (doi:10.1021/acs.jced.6b00833)
Numbers after ± are expanded uncertainties.

Settings: 101.33 kPa, Liquid, Vibrating tube method

CCC[N+]1(C)CCCC1.N#CN=C=[N-] [1-methyl-1-propylpyrrolidinium dicyanamide]
mass density (298.15 K): 1026.76 ± 6.2 kg/m3 | mass density (303.15 K): 1023.9 ± 6.2 kg/m3 | mass density (308.15 K): 1021.05 ± 6.2 kg/m3 | mass density (313.15 K): 1018.22 ± 6.2 kg/m3 | mass density (318.15 K): 1015.41 ± 6.1 kg/m3 | mass density (323.15 K): 1012.62 ± 6.1 kg/m3 | mass density (328.15 K): 1009.85 ± 6.1 kg/m3 | mass density (333.15 K): 1007.08 ± 6.1 kg/m3 | mass density (338.15 K): 1004.33 ± 6.1 kg/m3 | mass density (343.15 K): 1001.6 ± 6.1 kg/m3 | mass density (348.15 K): 998.88 ± 6 kg/m3 | mass density (353.15 K): 996.18 ± 6 kg/m3 | mass density (358.15 K): 993.49 ± 6 kg/m3 | mass density (363.15 K): 990.81 ± 6 kg/m3

CCCC[N+](C)(C)C.O=S(=O)([N-]S(=O)(=O)C(F)(F)F)C(F)(F)F [butyltrimethylammonium bis(trifluoromethylsulfonyl)imide]
mass density (298.48 K): 1392.89 ± 8.4 kg/m3

CC(=O)[O-].CCn1cc[n+](C)c1 [1-ethyl-3-methylimidazolium acetate]
mass density (298.15 K): 1097.83 ± 6.9 kg/m3 | mass density (303.15 K): 1094.72 ± 6.9 kg/m3 | mass density (308.15 K): 1091.64 ± 6.9 kg/m3 | mass density (313.15 K): 1088.57 ± 6.8 kg/m3 | mass density (318.15 K): 1085.52 ± 6.8 kg/m3 | mass density (323.15 K): 1082.49 ± 6.8 kg/m3 | mass density (328.15 K): 1079.48 ± 6.8 kg/m3 | mass density (333.15 K): 1076.48 ± 6.8 kg/m3 | mass density (338.15 K): 1073.49 ± 6.7 kg/m3 | mass density (343.15 K): 1070.51 ± 6.7 kg/m3 | mass density (348.15 K): 1067.55 ± 6.7 kg/m3 | mass density (353.15 K): 1064.6 ± 6.7 kg/m3 | mass density (358.15 K): 1061.66 ± 6.7 kg/m3 | mass density (363.15 K): 1058.74 ± 6.6 kg/m3

C[S+](C)[O-] [dimethyl sulfoxide]
mass density (293.15 K): 1100.42 ± 6.6 kg/m3 | mass density (298.15 K): 1095.41 ± 6.6 kg/m3 | mass density (303.15 K): 1090.38 ± 6.5 kg/m3 | mass density (308.15 K): 1085.36 ± 6.5 kg/m3 | mass density (313.15 K): 1080.34 ± 6.5 kg/m3 | mass density (318.15 K): 1075.32 ± 6.5 kg/m3 | mass density (323.15 K): 1070.31 ± 6.4 kg/m3 | mass density (328.15 K): 1065.29 ± 6.4 kg/m3 | mass density (333.15 K): 1060.28 ± 6.4 kg/m3 | mass density (338.15 K): 1055.26 ± 6.3 kg/m3 | mass density (343.15 K): 1050.23 ± 6.3 kg/m3 | mass density (348.15 K): 1045.21 ± 6.3 kg/m3 | mass density (353.15 K): 1040.19 ± 6.2 kg/m3 | mass density (358.15 K): 1035.15 ± 6.2 kg/m3 | mass density (363.15 K): 1030.12 ± 6.2 kg/m3

CCCC[P+](C)(CCCC)CCCC.O=C[O-] [tributylmethylphosphonium formate]
mass density (298.15 K): 950.7 ± 5.9 kg/m3 | mass density (303.15 K): 947.9 ± 5.9 kg/m3 | mass density (308.15 K): 945 ± 5.9 kg/m3 | mass density (313.15 K): 942.1 ± 5.9 kg/m3 | mass density (318.15 K): 939.2 ± 5.8 kg/m3 | mass density (323.15 K): 936.3 ± 5.8 kg/m3 | mass density (328.15 K): 933.5 ± 5.8 kg/m3
